Columns and labels:
Experiment in all cases: relative viability (nuclei count vs DMSO), 5 days (fraction); higher = more cells survive
[1] = compound: C1COCCN1C2=NC(=NC3=C2OC4=C3C=CC=N4)C5=CC(=CC=C5)NC(=O)C6=CN=C(C=C6)N + CS(=O)(=O)N1CCN(Cc2cc3nc(-c4cccc5[nH]ncc45)nc(N4CCOCC4)c3s2)CC1 [Pictilisib] (partner 1 µM)
Summary of the method: (§1)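 For relative viability, nuclei counts in treated wells were divided by those in vehicle wells. Lung cancer cell lines had been pin-tool dosed in 1536-well plates the day after seeding and cultured for 5 days, then fixed and stained in one step (final 0.05% Triton X-100, 1% formaldehyde, 1 ug/ml Hoechst) and imaged at 4×. Doses were one drug alone or a fixed anchor-drug dose plus five library-drug doses (not always all listed) in √10 steps, and values are duplicate-plate medians.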

SGI-1776 + Pictilisib = compound: CN1CCC(CNc2ccc3ncc(-c4cccc(OC(F)(F)F)c4)n3n2)CC1 [SGI-1776] + CS(=O)(=O)N1CCN(Cc2cc3nc(-c4cccc5[nH]ncc45)nc(N4CCOCC4)c3s2)CC1 [Pictilisib] (partner 1 µM)
Summary of the method: as §1

SGI-1776 + Trametinib = compound: CN1CCC(CNc2ccc3ncc(-c4cccc(OC(F)(F)F)c4)n3n2)CC1 [SGI-1776] + CC(=O)Nc1cccc(-n2c(=O)n(C3CC3)c(=O)c3c(Nc4ccc(I)cc4F)n(C)c(=O)c(C)c32)c1 [Trametinib] (partner 0.02 µM)
Summary of the method: as §1

Entinostat + Tozasertib = compound: Nc1ccccc1NC(=O)c1ccc(CNC(=O)OCc2cccnc2)cc1 [Entinostat] + Cc1cc(Nc2cc(N3CCN(C)CC3)nc(Sc3ccc(NC(=O)C4CC4)cc3)n2)n[nH]1 [Tozasertib] (partner 0.1 µM)
Summary of the method: as §1

UMC-11
relative viability ([1]; first compound 0.02 µM): 0.837
relative viability ([1]; first compound 0.06325 µM): 0.875
relative viability ([1]; first compound 0.2 µM): 0.791
relative viability ([1]; first compound 0.6325 µM): 0.776
relative viability ([1]; first compound 2 µM): 0.598
relative viability (SGI-1776 + Pictilisib; first compound 0.08 µM): 0.791
relative viability (SGI-1776 + Pictilisib; first compound 0.8 µM): 0.987
relative viability (SGI-1776 + Pictilisib; first compound 2.53 µM): 0.812
relative viability (SGI-1776 + Pictilisib; first compound 8 µM): 0.498
relative viability (SGI-1776 + Trametinib; first compound 0.08 µM): 0.719
relative viability (SGI-1776 + Trametinib; first compound 0.8 µM): 0.684
relative viability (SGI-1776 + Trametinib; first compound 2.53 µM): 0.787
relative viability (SGI-1776 + Trametinib; first compound 8 µM): 0.432
relative viability (Entinostat + Tozasertib; first compound 0.02 µM): 0.218
relative viability (Entinostat + Tozasertib; first compound 0.06325 µM): 0.201
relative viability (Entinostat + Tozasertib; first compound 0.2 µM): 0.206
relative viability (Entinostat + Tozasertib; first compound 0.6325 µM): 0.192
relative viability (Entinostat + Tozasertib; first compound 2 µM): 0.163

— the supplement of paper PMC10307832
